Measurements reported in paper PMC8759733 (Journal of Enzyme Inhibition and Medicinal Chemistry, 2021).
Entries after “also recorded” stand apart in the source; their conditions may differ.

Columns and labels:
[1] = molecular target: Acetylcholinesterase (AChE) (Electrophorus electricus, UniProt O42275); assay: Cholinesterase inhibition activity assay; assay type: biochemical; conditions: for inhibition at 1 µg/mL: read-out: Percentage of AChE inhibition at 1 µg/mL
[2] = molecular target: butyrylcholinesterase (BChE) (Equus caballus, UniProt P81908); assay: Cholinesterase inhibition activity assay; assay type: biochemical, Equine serum; conditions: read-out: BChE Percentage of inhibition at 4 µg/mL
Chain of butyrylcholinesterase (BChE) (P81908 whole entry): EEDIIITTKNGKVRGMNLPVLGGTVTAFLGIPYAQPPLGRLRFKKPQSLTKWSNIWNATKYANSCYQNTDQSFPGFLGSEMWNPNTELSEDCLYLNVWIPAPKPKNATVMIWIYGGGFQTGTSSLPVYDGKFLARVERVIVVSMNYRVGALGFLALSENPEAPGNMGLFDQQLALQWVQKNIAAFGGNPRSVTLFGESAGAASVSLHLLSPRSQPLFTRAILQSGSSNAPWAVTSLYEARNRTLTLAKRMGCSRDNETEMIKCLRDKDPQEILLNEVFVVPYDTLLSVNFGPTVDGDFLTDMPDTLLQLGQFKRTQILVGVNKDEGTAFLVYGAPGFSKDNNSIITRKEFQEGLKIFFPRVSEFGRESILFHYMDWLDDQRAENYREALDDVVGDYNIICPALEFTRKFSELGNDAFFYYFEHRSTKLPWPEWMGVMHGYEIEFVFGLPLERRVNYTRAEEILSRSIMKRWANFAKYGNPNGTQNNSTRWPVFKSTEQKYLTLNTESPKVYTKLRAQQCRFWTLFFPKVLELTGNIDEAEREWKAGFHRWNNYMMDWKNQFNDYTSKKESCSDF

AChE = AChE (Electrophorus electricus, UniProt O42275); assay: AChE enzyme kinetic study; assay type: biochemical; conditions: substrate ATCI 0.43-6.90 mM; Lineweaver-Burk plot
Chain of AChE (O42275 24-633): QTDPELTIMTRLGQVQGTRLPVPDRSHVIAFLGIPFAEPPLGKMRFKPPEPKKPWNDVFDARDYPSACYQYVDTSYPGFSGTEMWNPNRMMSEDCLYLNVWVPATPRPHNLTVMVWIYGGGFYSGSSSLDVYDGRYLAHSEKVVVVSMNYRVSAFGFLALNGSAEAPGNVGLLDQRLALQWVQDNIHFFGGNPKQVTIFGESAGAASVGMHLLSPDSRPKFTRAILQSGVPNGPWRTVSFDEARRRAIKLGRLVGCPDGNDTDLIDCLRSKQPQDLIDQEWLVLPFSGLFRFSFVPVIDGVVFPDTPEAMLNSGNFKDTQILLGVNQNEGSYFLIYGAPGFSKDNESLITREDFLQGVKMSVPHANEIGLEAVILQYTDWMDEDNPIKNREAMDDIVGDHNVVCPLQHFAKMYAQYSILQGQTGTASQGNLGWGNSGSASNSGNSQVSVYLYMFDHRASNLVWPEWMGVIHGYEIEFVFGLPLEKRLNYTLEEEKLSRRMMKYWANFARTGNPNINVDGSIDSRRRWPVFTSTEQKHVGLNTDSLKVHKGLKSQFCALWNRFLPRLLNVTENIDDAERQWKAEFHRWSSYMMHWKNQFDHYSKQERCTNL

Chain of Acetylcholinesterase (AChE) (O42275 24-633): as above

Row | Structure (SMILES) | IC50 [1] [µM] | inhibition at 4 µg/mL [2] [%] | inhibition at 1 µg/mL [1] [%] | Mode of AChE inhibition (AChE)
1 | COCCOCCOc1ccc2c(=O)c3ccccc3oc2c1 [Compound 26, 3-(2-(2-Methoxyethoxy)ethoxy)-9H-xanthen-9-one] | 0.97 ± 0.06 | 17.8 ± 1.6 | – | –
2 | CC(C)=CCOc1ccc2c(=O)c3ccccc3oc2c1 [Compound 16, 3-((3-Methylbut-2-en-1-yl)oxy)-9H-xanthen-9-one] | 1.86 ± 0.15 | 7.96 ± 1.22 | – | –
3 | C#CC(C)Oc1ccc2c(=O)c3ccccc3oc2c1 (centres unmarked) [Compound 20, 3-(But-3-yn-2-yloxy)-9H-xanthen-9-one] | 2.24 ± 0.17 | 5 ± 0.74 | – | –
4 | C=C(C)COc1ccc2c(=O)c3ccccc3oc2c1 [Compound 15, 3-((2-Methylallyl)oxy)-9H-xanthen-9-one] | 1.6 ± 0.15 | 2.33 ± 0.3 | – | –
5 | COCCCOc1ccc2c(=O)c3ccccc3oc2c1 [Compound 24, 3-(3-Methoxypropoxy)-9H-xanthen-9-one] | > 3.52 | 11 ± 1.38 | < 50 | –
6 | C[C@@H](CO)COc1ccc2c(=O)c3ccccc3oc2c1 [Compound 30, (S)-3-(3-hydroxy-2-methylpropoxy)-9H-xanthen-9-one] | > 3.52 | 5.48 ± 0.31 | < 50 | –
7 | COC(=O)COc1ccc2c(=O)c3ccccc3oc2c1 [Compound 27, Methyl 2-((9-oxo-9H-xanthen-3-yl)oxy)acetate] | 1.28 ± 0.13 | 7.69 ± 0.34 | – | –
8 | O=c1c2ccccc2oc2cc(OCCC3CCCCC3)ccc12 [Compound 11, 3-(2-Cyclohexylethoxy)-9H-xanthen-9-one] | 1.27 ± 0.13 | 24.3 ± 2.29 | – | –
9 | C=CCCCOc1ccc2c(=O)c3ccccc3oc2c1 [Compound 13, 3-(Pent-4-en-1-yloxy)-9H-xanthen-9-one] | > 3.57 | 20.9 ± 3.07 | < 50 | –
10 | CC[C@H](C)COc1ccc2c(=O)c3ccccc3oc2c1 [Compound 7, (S)-3-(2-Methylbutoxy)-9H-xanthen-9-one] | 1.74 ± 0.2 | 24.8 ± 1.96 | – | –
11 | CC#CCOc1ccc2c(=O)c3ccccc3oc2c1 [Compound 18, 3-(But-2-yn-1-yloxy)-9H-xanthen-9-one] | > 3.79 | 4.53 ± 0.88 | < 50 | –
12 | CC(C)=CCCOc1ccc2c(=O)c3ccccc3oc2c1 [Compound 17, 3-((4-Methylpent-3-en-1-yl)oxy)-9H-xanthen-9-one] | 1.06 ± 0.12 | 20.9 ± 3.03 | – | –
13 | O=c1c2ccccc2oc2cc(OCCCCc3ccccc3)ccc12 [Compound 23, 3-(4-Phenylbutoxy)-9H-xanthen-9-one] | 0.88 ± 0.04 | 9.19 ± 0.55 | – | mixed inhibition mechanism; also recorded: mixed-mode inhibition
14 | O=c1c2ccccc2oc2cc(OCc3ccccc3)ccc12 [Compound 21, 3-(Benzyloxy)-9H-xanthen-9-one] | 0.99 ± 0.19 | 5.04 ± 0.7 | – | –
15 | CCC(CC)COc1ccc2c(=O)c3ccccc3oc2c1 [Compound 8, 3-(2-Ethylbutoxy)-9H-xanthen-9-one] | 1.15 ± 0.19 | 12.6 ± 1.26 | – | –
16 | CCCCOc1ccc2c(=O)c3ccccc3oc2c1 [Compound 3, 3-Butoxy-9H-xanthen-9-one] | 1.4 ± 0.14 | 17.6 ± 1.89 | – | –
17 | C[C@H](CO)COc1ccc2c(=O)c3ccccc3oc2c1 [Compound 29, (R)-3-(3-Hydroxy-2-methylpropoxy)-9H-xanthen-9-one] | > 3.52 | 13.9 ± 0.96 | < 50 | –
18 | CC(C)COc1ccc2c(=O)c3ccccc3oc2c1 [Compound 5, 3-Isobutoxy-9H-xanthen-9-one] | 1.18 ± 0.11 | 9.78 ± 1.22 | – | –
19 | CCCOc1ccc2c(=O)c3ccccc3oc2c1 [Compound 2, 3-Propoxy-9H-xanthen-9-one] | 1.86 ± 0.04 | 11.9 ± 1.74 | – | –
20 | CCC#CCOc1ccc2c(=O)c3ccccc3oc2c1 [Compound 19, 3-(Pent-2-yn-1-yloxy)-9H-xanthen-9-one] | 1.21 ± 0.05 | 5.24 ± 0.25 | – | –
21 | CCOC(=O)COc1ccc2c(=O)c3ccccc3oc2c1 [Compound 28, Ethyl 2-((9-oxo-9H-xanthen-3-yl)oxy)acetate] | 0.88 ± 0.15 | 4.11 ± 0.35 | – | mixed inhibition mechanism; also recorded: mixed-mode inhibition
22 | O=c1c2ccccc2oc2cc(O)ccc12 [Compound 1, 3-hydroxyxanthone] | 2.39 ± 0.11 | 6.55 ± 0.82 | – | –
23 | O=c1c2ccccc2oc2cc(OCC3CCC3)ccc12 [Compound 10, 3-(Cyclobutylmethoxy)-9H-xanthen-9-one] | 1.61 ± 0.11 | 7.01 ± 1.16 | – | –
24 | C=CCCOc1ccc2c(=O)c3ccccc3oc2c1 [Compound 12, 3-(But-3-en-1-yloxy)-9H-xanthen-9-one] | 2.09 ± 0.21 | 5.33 ± 0.17 | – | –
25 | C=CCCCCOc1ccc2c(=O)c3ccccc3oc2c1 [Compound 14, 3-(Hex-5-en-1-yloxy)-9H-xanthen-9-one] | > 3.4 | 16.4 ± 1.34 | < 50 | –
26 | O=c1c2ccccc2oc2cc(OCCCc3ccccc3)ccc12 [Compound 22, 3-(3-Phenylpropoxy)-9H-xanthen-9-one] | 1.22 ± 0.12 | 15.5 ± 1.93 | – | –
27 | COCOCCOc1ccc2c(=O)c3ccccc3oc2c1 [Compound 25, 3-(2-(Methoxymethoxy)ethoxy)-9H-xanthen-9-one] | 1.37 ± 0.12 | 10.3 ± 1.24 | – | –
28 | CC(C)CCCOc1ccc2c(=O)c3ccccc3oc2c1 [Compound 9, 3-((4-Methylpentyl)oxy)-9H-xanthen-9-one] | 2.07 ± 0.06 | 11.8 ± 0.98 | – | –
29 | CC(C)CCOc1ccc2c(=O)c3ccccc3oc2c1 [Compound 6, 3-(Isopentyloxy)-9H-xanthen-9-one] | 1.84 ± 0.21 | 5.47 ± 0.61 | – | –
30 | CC(C)Oc1ccc2c(=O)c3ccccc3oc2c1 [Compound 4, 3-Isopropoxy-9H-xanthen-9-one] | 1.41 ± 0.13 | 20.7 ± 1.75 | – | –
